According to patent US20070173462A1, “Treatment of diseases associated with the use of antibiotics” (Optimer Pharmaceuticals, Inc., priority 2004, published 2007):
Values after ≈ are worked out from the molar mass of the structure shown. Read-outs that look alike come from different tables or passages of the source.

What was measured:
Assay type in all cases: cell-based
[1] = tested on: C. difficile; experiment: MIC via agar dilution, 110 genetically distinct clinical isolates of C. difficile
[2] = tested on: Eubacterium sp.; experiment: MIC, clinical isolates (Table 3); conditions: n=26
From the text: (§1) Compound I was additionally tested against anaerobic clinical isolates and against aerobic bacteria. […] The compound was also active against clinical strains of Staphylococcus sp. and Enterococcus sp.

[3] = tested on: Enterobacteiaceae; experiment: MIC, clinical isolates (Table 3); conditions: n=28
From the text: as §1

[4] = tested on: Enterococcus sp.; experiment: MIC, clinical isolates (Table 3)
From the text: as §1

[5] = tested on: Prevotella sp.; experiment: MIC, clinical isolates (Table 3); conditions: n=35
From the text: as §1

[6] = tested on: Propionibacterium sp.; experiment: MIC, clinical isolates (Table 3); conditions: n=16
From the text: as §1

[7] = tested on: Bacteroides fragilis; experiment: MIC, clinical isolates (Table 3); conditions: n=69
From the text: as §1

[8] = tested on: Streptococcus sp.; experiment: MIC, clinical isolates (Table 3); conditions: n=10
From the text: as §1

[9] = tested on: Staphylococcus sp.; experiment: MIC, clinical isolates (Table 3)
From the text: as §1

[10] = tested on: Eschericia coli; experiment: organism not typed; conditions: clinical gastrointestinal isolates, n=10
[11] = Clostridioides difficile, 110 clinical isolates, agar dilution

Compound: CCc1c(Cl)c(O)c(Cl)c(O)c1C(=O)O[C@H]1[C@H](O)[C@H](OC)[C@H](OC/C2=C\C=C\C[C@H](O)/C(C)=C/[C@H](CC)C(O[C@@H]3OC(C)(C)[C@@H](OC(=O)C(C)C)[C@H](O)[C@@H]3O)/C(C)=C/C(C)=C/C[C@@H](C(C)O)OC2=O)O[C@@H]1C (some centres unmarked) [Compound I]
- MIC ([1]; Clostridioides difficile, isolate ORG ID Y2 1459, read-out: MIC): 0.06 mg/L (≈ 0.0567 µM)
- MIC ([1]; Clostridioides difficile, isolate ORG ID Z1 3036, read-out: MIC): 0.03 mg/L (≈ 0.0284 µM)
- MIC50 [1, 11]: 0.125 mg/L (≈ 0.118 µM)
- MIC90 [1, 11]: 0.125 mg/L (≈ 0.118 µM)
- MIC ([1]; Clostridioides difficile, 110 clinical isolates, agar dilution, read-out: Geometric Mean (MIC)): 0.08 mg/L (≈ 0.0756 µM)
- MIC ([1]; isolate ORG ID 64 5940): 0.125 mg/L (≈ 0.118 µM)
- MIC ([1]; isolate ORG ID 67 6367): 0.125 mg/L (≈ 0.118 µM)
- MIC ([1]; isolate ORG ID 70 6376): 0.125 mg/L (≈ 0.118 µM)
- MIC ([1]; isolate ORG ID 71 6379): 0.125 mg/L (≈ 0.118 µM)
- MIC ([1]; isolate ORG ID 72 6380): 0.125 mg/L (≈ 0.118 µM)
- MIC ([1]; isolate ORG ID 75 6388): 0.125 mg/L (≈ 0.118 µM)
- MIC ([1]; isolate ORG ID 76 6389): 0.125 mg/L (≈ 0.118 µM)
- MIC ([1]; isolate ORG ID 80 6327): 0.125 mg/L (≈ 0.118 µM)
- MIC ([1]; isolate ORG ID 81 6328): 0.125 mg/L (≈ 0.118 µM)
- MIC ([1]; isolate ORG ID 84 6331): 0.125 mg/L (≈ 0.118 µM)
- MIC ([1]; isolate ORG ID 87 6334): 0.125 mg/L (≈ 0.118 µM)
- MIC ([1]; isolate ORG ID 88 6335): 0.125 mg/L (≈ 0.118 µM)
- MIC ([1]; isolate ORG ID 90 6338): 0.125 mg/L (≈ 0.118 µM)
- MIC ([1]; isolate ORG ID 91 6339): 0.125 mg/L (≈ 0.118 µM)
- MIC ([1]; isolate ORG ID 93 6341): 0.125 mg/L (≈ 0.118 µM)
- MIC ([1]; isolate ORG ID 95 6347): 0.125 mg/L (≈ 0.118 µM)
- MIC ([1]; isolate ORG ID 98 6350): 0.125 mg/L (≈ 0.118 µM)
- MIC ([1]; isolate ORG ID 100 6353): 0.125 mg/L (≈ 0.118 µM)
- MIC ([1]; isolate ORG ID A1 1535): 0.125 mg/L (≈ 0.118 µM)
- MIC ([1]; isolate ORG ID AF1 1808): 0.125 mg/L (≈ 0.118 µM)
- MIC ([1]; isolate ORG ID AG1 3044): 0.125 mg/L (≈ 0.118 µM)
- MIC ([1]; isolate ORG ID AH1 3430): 0.125 mg/L (≈ 0.118 µM)
- MIC ([1]; isolate ORG ID AN1 464): 0.125 mg/L (≈ 0.118 µM)
- MIC ([1]; isolate ORG ID AO1 287): 0.125 mg/L (≈ 0.118 µM)
- MIC ([1]; isolate ORG ID AS1 4099): 0.125 mg/L (≈ 0.118 µM)
- MIC ([1]; isolate ORG ID AT1 1216): 0.125 mg/L (≈ 0.118 µM)
- MIC ([1]; isolate ORG ID AW1 4501): 0.125 mg/L (≈ 0.118 µM)
- MIC ([1]; isolate ORG ID BE1 4307): 0.125 mg/L (≈ 0.118 µM)
- MIC ([1]; isolate ORG ID BI1 1675): 0.125 mg/L (≈ 0.118 µM)
- MIC ([1]; isolate ORG ID BK1 4291): 0.125 mg/L (≈ 0.118 µM)
- MIC ([1]; isolate ORG ID BL1 716): 0.125 mg/L (≈ 0.118 µM)
- MIC ([1]; isolate ORG ID BN1 1322): 0.125 mg/L (≈ 0.118 µM)
- MIC ([1]; isolate ORG ID BV1 1183): 0.125 mg/L (≈ 0.118 µM)
- MIC ([1]; isolate ORG ID BW1 3130): 0.125 mg/L (≈ 0.118 µM)
- MIC ([1]; isolate ORG ID BX1 4271): 0.125 mg/L (≈ 0.118 µM)
- MIC ([1]; isolate ORG ID CF1 5922): 0.125 mg/L (≈ 0.118 µM)
- MIC ([1]; isolate ORG ID CG1 1566): 0.125 mg/L (≈ 0.118 µM)
- MIC ([1]; isolate ORG ID CJ1 893): 0.125 mg/L (≈ 0.118 µM)
- MIC ([1]; isolate ORG ID CP1 5491): 0.125 mg/L (≈ 0.118 µM)
- MIC ([1]; isolate ORG ID G1 1077): 0.125 mg/L (≈ 0.118 µM)
- MIC ([1]; isolate ORG ID I1 1389): 0.125 mg/L (≈ 0.118 µM)
- MIC ([1]; isolate ORG ID K1 4305): 0.125 mg/L (≈ 0.118 µM)
- MIC ([1]; isolate ORG ID K14 5780): 0.125 mg/L (≈ 0.118 µM)
- MIC ([1]; isolate ORG ID L1 1423): 0.125 mg/L (≈ 0.118 µM)
- MIC ([1]; isolate ORG ID N1 471): 0.125 mg/L (≈ 0.118 µM)
- MIC ([1]; isolate ORG ID R1 397): 0.125 mg/L (≈ 0.118 µM)
- MIC ([1]; isolate ORG ID V1 1521): 0.125 mg/L (≈ 0.118 µM)
- MIC ([1]; isolate ORG ID W1 3931): 0.125 mg/L (≈ 0.118 µM)
- MIC ([1]; isolate ORG ID X1 1890): 0.125 mg/L (≈ 0.118 µM)
- MIC50 [2]: 32 mg/L (≈ 30.2 µM)
- MIC50 [3]: > 64 mg/L
- Range (MIC) [3]: > 64 mg/L
- MIC50 ([4]; Enterococcus, clinical isolates, n=8): 4 mg/L (≈ 3.78 µM)
- Range (MIC) ([4]; clinical isolates, n=8, in µg/mL): 1-8
- activity (in words) ([4]; clinical strains): active
- MIC50 [5]: ≥ 128 mg/L
- MIC50 [6]: 4 mg/L (≈ 3.78 µM)
- MIC50 ([7]; Bacteroides fragilis): ≥ 128 mg/L
- Range (MIC) [7]: ≧128^
- MIC50 [8]: 16 mg/L (≈ 15.1 µM)
- MIC50 ([9]; Staphylococcus, clinical isolates, n=10): 2 mg/L (≈ 1.89 µM)
- Range (MIC) ([9]; clinical isolates, n=10, in µg/mL): 1-8
- activity (in words) ([9]; clinical strains): active
- MIC50 [10]: > 256 mg/L
- MIC90 [10]: > 256 mg/L
- Range (MIC) [10]: >256 mg/L
